The values below come from US5932559A, “Treatment of hyperandrogenic conditions” (Merck & Co., Inc., priority 1996, dated 1999).

The target in assay [1] is T1, type 2 5α-reductase (Homo sapiens, UniProt P31213).
T1 construct: made in house
T1 sequence (P31213 1-254): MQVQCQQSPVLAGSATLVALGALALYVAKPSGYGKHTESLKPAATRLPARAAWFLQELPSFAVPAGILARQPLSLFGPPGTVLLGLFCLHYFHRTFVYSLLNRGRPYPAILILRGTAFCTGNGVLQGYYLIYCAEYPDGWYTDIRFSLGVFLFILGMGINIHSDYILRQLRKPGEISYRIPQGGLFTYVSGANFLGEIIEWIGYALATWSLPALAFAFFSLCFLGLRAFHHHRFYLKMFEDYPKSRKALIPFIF
Briefly: Kinetic constants of baculovirus-expressed type 2 5α-reductase under the standard assay conditions. The class given is biochemical.
Text: Ethanol is included at 1% final concentration as the vehicle for introduction of inhibitors. […] A unit of enzyme activity was defined as 1 pmol product/min, and is equal to 444 fmol enzyme under these conditions.
When tissue extracts are the source of enzyme, the quenched reactions are clarified by centrifugation at 10,000×g before analysis.
The molecular weight was taken to be about 30,000 in estimating enzyme purity.

In assay [2] the test system is native human prostate enzyme. Conditions: read-out: Km (Faller et al.), neutral pH; cited from earlier work.
The test system of assay [3] is human prostate (type 2) isozyme. Conditions: cited from earlier work.
Assay [4] has as its system human skin (type 1) isozyme. Conditions: cited from earlier work.
In the next assay the test system is dihydrotestosterone. The note with it: after withdrawal of finasteride; cited from earlier work.
Assay [5] has as its target T1, type 2 5α-reductase. Briefly: Progress curves of DHT formation, time course of inhibition of baculovirus expressed type 2 5α-reductase. The class given is biochemical. Conditions: 20 nM inhibitor, pH 7.2, 37° C. Here is the method: Ethanol is included at 1% final concentration as the vehicle for introduction of inhibitors. The rate of production of [^3 H]dihydrotestosterone is approximately constant for up to 2 hours or 10% consumption of substrate. A unit of enzyme activity was defined as 1 pmol product/min, and is equal to 444 fmol enzyme under these conditions.
After quenching the reactions with an equal volume, or more, of water containing 1% trifluoroacetic acid, the [^3 H]dihydrotestosterone is isolated by direct injection onto a reverse phase C-18 column (Vydac 4.6×250 mm, 300 Å, 5 micron), which is run in an isocratic system of 40% water (containing 0.1% trifluoroacetic acid) and 60% methanol at 1 mL/min. […] The effluent containing the [^3 H]dihydrotestosterone peak (6 mL) is collected in a liquid scintillation vial and counted with AQUASOL 2 (14 mL, New England Nuclear) with an efficiency of 0.309. […]
The native human enzyme was from prostate (type 2) or scalp (type 1) tissue, and the recombinant human enzymes were produced by the baculovirus expression system of Anderson, et al. (Chan, H K, Geissler, W M, Anderson, S, Sex Hormones and Antihormones in Endocrine Dependent Pathology: Basic and Clinical Aspects, M. Motta and M. Serio, eds., Elsevier Science 1994). […] Enzyme concentrations were determined by titration with finasteride, or [^3 H]finasteridem, or from catalytic activity using kcat and Km values. […]

Turning to `C[C@]12CC[C@H]3[C@@H](CCC4=CC(=O)CC[C@@]43C)[C@@H]1CC[C@@H]2O` [testosterone], the Km at type 2 5α-reductase [1] (baculovirus-expressed type 2, pH 7.2, 37° C., read-out: Km for testosterone) is 0.0246 ± 0.0007 µM; in assay [2] it was 0.02 ± 0.003 µM. The compound also came in with a turnover number kcat at type 2 5α-reductase [1] (type 2, pH 7.2, 37° C., by titration with finasteride) of 0.075 ± 0.006 s⁻¹.
For the compound `CC(C)(C)NC(=O)[C@H]1CC[C@H]2[C@@H]3CC[C@H]4NC(=O)C=C[C@]4(C)[C@H]3CC[C@]12C` [finasteride, 17β-(N-tert-butylcarbamoyl)-3-oxo-4-aza-5α-androst-1-ene-3-one], the “rate constant of binding to the human prostate isozyme” value in assay [3] (Faller et al., slow-binding) was 270000 M⁻¹ s⁻¹. Besides, in assay [3] (Harris et al.), the “inhibition type, human prostate (type 2) isozyme” value is given as “slow-binding inhibitors”. Moreover, the “inhibition of type 2 isozyme, in words” value in assay [3] (predominates in the prostate) is recorded as “potently inhibited”. For the same compound, the “inhibition of human skin (type 1) isozyme at clinical doses, in words” value in assay [4] (at doses employed in the treatment of BPH) is on record as “not a significant inhibitor”. Besides, the “sensitivity of type 1 isozyme, in words” value in assay [4] (sebaceous glands of most regions of skin tissue) was “relatively insensitive”. In addition, in assay [4] (type 1 vs type 2), the “type 1 rate constant as percent of the rate constant against the prostate isozyme” value was “about 1%”. The “time required for dihydrotestosterone to return to basal levels after withdrawal” value with dihydrotestosterone is “as long as two weeks”.
As to `CCN(CC)C(=O)[C@H]1CC[C@H]2[C@@H]3CC[C@H]4OC(=O)C=C[C@]4(C)[C@H]3CC[C@]12C` [L-682,299, 17β-(N-diethyl)carbamoyl-4-oxa-5α-androst-1-en-3-one], the velocity at infinite-time result at type 2 5α-reductase [5] was “essentially zero”. For the same compound, at type 2 5α-reductase [5] (inhibition developed slowly with time), the “inhibition of the enzyme at infinite time” value was “total inhibition”.

What is called Km is the concentration of substrate that gives half-maximal velocity.
